Molecules are shown by their SMILES. ≈ marks a conversion by molar mass, not a printed value. Some results are limits rather than exact numbers.

What all share (assay): ≥ marks a high value that may be exact or a test limit, other limits are often not marked, values filed in µg/mL are converted to µM
Assay [1] deals with Staphylococcus aureus ATCC 25923.
Assay [2] concerns Pseudomonas aeruginosa PAO1.
The subject of assay [3] is Escherichia coli ATCC 25922.
In assay [4] the test system is Salmonella enterica serovar Typhimurium.
In assay [5] the test system is Staphylococcus epidermidis C621.
Another assay has as its system Escherichia coli UB1005.
In the next assay the test system is Escherichia coli DC2.
Assay [6] relates to Corynebacterium xerosis C875.
In assay [7] the test system is Pseudomonas aeruginosa ATCC 27853.
Assay [8] relates to Pseudomonas aeruginosa CMCCB 10104.
Assay [9] has as its system Candida albicans ATCC 2002.
Assay [10] relates to Escherichia coli K12 MG1655.

For `CC[C@H](C)[C@H](NC(=O)[C@H](CCCN=C(N)N)NC(=O)[C@H](Cc1c[nH]c2ccccc12)NC(=O)[C@H](CCC(N)=O)NC(=O)[C@@H](N)CCCCN)C(=O)N[C@@H](CCCN=C(N)N)C(=O)N[C@H](C(=O)N[C@@H](CS)C(=O)N[C@H](C(=O)N[C@H](C(=O)N[C@@H](CCCN=C(N)N)C(=O)N[C@@H](C)C(=O)O)[C@@H](C)CC)C(C)C)C(C)C` [KQWRIRVCVIRA], the MIC (in general, the lowest concentration that inhibits growth of the organism) in assay [1] worked out at 20.9 µM (≈ 32 µg/mL); in assay [2] it was 41.9 µM (≈ 64 µg/mL); in assay [3] it was 20.9 µM (≈ 32 µg/mL); in [4], 20.9 µM (≈ 32 µg/mL).
As to `C[C@H](NC(=O)[C@H](C)NC(=O)[C@H](C)NC(=O)[C@H](CO)NC(=O)[C@H](C)NC(=O)[C@H](C)NC(=O)[C@H](C)NC(=O)[C@H](CCCCN)NC(=O)[C@@H](N)CCCCN)C(=O)N[C@@H](C)C(=O)N[C@@H](C)C(=O)N[C@@H](CO)C(=O)N[C@@H](C)C(=O)N[C@@H](C)C(=O)N[C@@H](Cc1c[nH]c2ccccc12)C(=O)N[C@@H](C)C(=O)N[C@@H](C)C(=O)N[C@@H](CO)C(=O)N[C@@H](C)C(=O)N[C@@H](C)C(=O)N[C@@H](C)C(=O)N[C@@H](CCCCN)C(=O)N[C@@H](CCCCN)C(=O)N[C@@H](CCCCN)C(=O)N[C@@H](CCCCN)C(N)=O` [KKAAASAAAAASAAWAASAAAKKKK], the MIC (in [5]; against Escherichia coli UB1005; in the assay with Escherichia coli DC2; in assay [6]) was at least 64 µM throughout.
Regarding `C[C@H](NC(=O)[C@H](C)NC(=O)[C@H](Cc1ccccc1)NC(=O)[C@H](C)NC(=O)[C@H](C)NC(=O)[C@H](Cc1c[nH]c2ccccc12)NC(=O)[C@H](C)NC(=O)[C@H](C)NC(=O)[C@H](Cc1ccccc1)NC(=O)[C@H](C)NC(=O)[C@H](C)NC(=O)[C@H](CCCN=C(N)N)NC(=O)[C@H](CCCN=C(N)N)NC(=O)[C@H](CCCN=C(N)N)NC(=O)[C@H](CCCN=C(N)N)NC(=O)[C@H](CCCN=C(N)N)NC(=O)[C@@H](N)CCCN=C(N)N)C(N)=O` [RRRRRRAAFAAWAAFAA], the MIC in assay [5] came to 4 µM (≈ 8.01 µg/mL); in the assay with Escherichia coli UB1005, 1 µM (≈ 2 µg/mL); in the assay on Escherichia coli DC2 it was 0.5 µM (≈ 1 µg/mL); in assay [3], 4 µM (≈ 8.01 µg/mL); in assay [7] it was 8 µM (≈ 16 µg/mL); in assay [6] it was 0.5 µM (≈ 1 µg/mL).
In the case of `CC[C@H](C)[C@H](NC(=O)[C@H](CCCN=C(N)N)NC(=O)[C@@H](NC(=O)[C@H](CCCN=C(N)N)NC(=O)[C@H](Cc1c[nH]c2ccccc12)NC(=O)[C@H](CCC(N)=O)NC(=O)[C@@H](N)C(C)C)[C@@H](C)CC)C(=O)N[C@@H](C)C(=O)N[C@H](C(=O)N[C@H](C(=O)N[C@@H](CCCN=C(N)N)C(=O)N[C@@H](CCCCN)C(=O)O)[C@@H](C)CC)C(C)C` [VQWRIRIAVIRK], the MIC in assay [1] stood at 10.4 µM (≈ 16 µg/mL); in assay [2], 20.8 µM (≈ 32 µg/mL); in assay [3], 10.4 µM (≈ 16 µg/mL); in assay [4] it was 10.4 µM (≈ 16 µg/mL).
On to `C[C@H](NC(=O)[C@H](C)NC(=O)[C@H](C)NC(=O)[C@H](C)NC(=O)[C@H](C)NC(=O)[C@H](C)NC(=O)[C@H](C)NC(=O)[C@H](CCCCN)NC(=O)[C@@H](N)CCCCN)C(=O)N[C@@H](C)C(=O)N[C@@H](C)C(=O)N[C@@H](C)C(=O)N[C@@H](C)C(=O)N[C@@H](C)C(=O)N[C@@H](Cc1c[nH]c2ccccc12)C(=O)N[C@@H](C)C(=O)N[C@@H](C)C(=O)N[C@@H](C)C(=O)N[C@@H](C)C(=O)N[C@@H](C)C(=O)N[C@@H](C)C(=O)N[C@@H](CCCCN)C(=O)N[C@@H](CCCCN)C(=O)N[C@@H](CCCCN)C(=O)N[C@@H](CCCCN)C(N)=O` [KKAAAAAAAAAAAAWAAAAAAKKKK], for which the MIC in assay [5] was at least 64 µM; in the assay with Escherichia coli UB1005 it was at least 64 µM; against Escherichia coli DC2, at least 64 µM; in [6], 2 µM (≈ 4.5 µg/mL).
Consider `CC[C@H](C)[C@H](NC(=O)[C@H](C)NC(=O)[C@H](CC(C)C)NC(=O)[C@H](CC(N)=O)NC(=O)[C@H](CCCCN)NC(=O)[C@H](CC(C)C)NC(=O)[C@@H](NC(=O)[C@H](CC(=O)O)NC(=O)[C@H](CC(C)C)NC(=O)[C@H](Cc1ccccc1)NC(=O)[C@@H](N)CO)[C@@H](C)O)C(=O)N[C@@H](CO)C(=O)N[C@@H](C)C(=O)N[C@@H](C)C(=O)N[C@@H](CCCCN)C(=O)NCC(=O)N[C@@H](C)C(=O)NCC(=O)N[C@@H](CCC(N)=O)C(=O)N[C@@H](CO)C(=O)N[C@H](C(=O)N[C@@H](CC(C)C)C(=O)N[C@@H](CO)C(=O)N[C@H](C(=O)N[C@@H](CC(C)C)C(=O)N[C@@H](CO)C(=O)N[C@H]1CSSC[C@@H](C(=O)O)NC(=O)[C@H]([C@@H](C)O)NC(=O)[C@H](CCCCN)NC(=O)[C@H](CO)NC(=O)[C@H](CC(C)C)NC(=O)[C@H](CCCCN)NC1=O)[C@@H](C)O)C(C)C` [SFLDTLKNLAISAAKGAGQSVLSTLSCKLSKTC], for which the MIC in assay [8], in [1], in assay [3] and in assay [9] was 3.9 µM (≈ 13.1 µg/mL) each time.
In the case of `CC(C)[C@H](NC(=O)[C@H](C)NC(=O)[C@H](C)NC(=O)[C@H](C)NC(=O)[C@H](CCCCN)NC(=O)[C@@H](N)CCCCN)C(=O)N[C@@H](C)C(=O)N[C@@H](C)C(=O)N[C@@H](C)C(=O)N[C@@H](C)C(=O)N[C@@H](C)C(=O)N[C@H](C(=O)N[C@@H](C)C(=O)N[C@@H](C)C(=O)N[C@@H](Cc1c[nH]c2ccccc12)C(=O)N[C@@H](C)C(=O)N[C@@H](C)C(=O)N[C@H](C(=O)N[C@@H](C)C(=O)N[C@@H](C)C(=O)N[C@@H](C)C(=O)N[C@@H](CCCCN)C(=O)N[C@@H](CCCCN)C(=O)N[C@@H](CCCCN)C(=O)N[C@@H](CCCCN)C(N)=O)C(C)C)C(C)C` [KKAAAVAAAAAVAAWAAVAAAKKKK], the MIC in assay [5] is at least 32 µM; in the assay with Escherichia coli UB1005, at least 32 µM; against Escherichia coli DC2, at least 32 µM; in assay [6], 0.5 µM (≈ 1.17 µg/mL).
Consider `C[C@H](NC(=O)[C@H](C)NC(=O)[C@H](C)NC(=O)[C@H](CCCN=C(N)N)NC(=O)[C@H](C)NC(=O)[C@H](C)NC(=O)[C@H](C)NC(=O)[C@H](CCCCN)NC(=O)[C@@H](N)CCCCN)C(=O)N[C@@H](C)C(=O)N[C@@H](C)C(=O)N[C@@H](CCCN=C(N)N)C(=O)N[C@@H](C)C(=O)N[C@@H](C)C(=O)N[C@@H](Cc1c[nH]c2ccccc12)C(=O)N[C@@H](C)C(=O)N[C@@H](C)C(=O)N[C@@H](CCCN=C(N)N)C(=O)N[C@@H](C)C(=O)N[C@@H](C)C(=O)N[C@@H](C)C(=O)N[C@@H](CCCCN)C(=O)N[C@@H](CCCCN)C(=O)N[C@@H](CCCCN)C(=O)N[C@@H](CCCCN)C(N)=O` [KKAAARAAAAARAAWAARAAAKKKK], for which the MIC in assay [5] was at least 64 µM; with Escherichia coli UB1005, at least 64 µM; against Escherichia coli DC2, at least 32 µM; in assay [6] it was 8 µM (≈ 20.1 µg/mL).
On to `CC[C@H](C)[C@H](NC(=O)[C@H](CC(N)=O)NC(=O)[C@H](CCCCN)NC(=O)[C@H](CCCCN)NC(=O)[C@@H]1CCCN1C(=O)[C@H](Cc1ccccc1)NC(=O)[C@@H](NC(=O)[C@@H](N)Cc1ccccc1)[C@@H](C)CC)C(=O)N[C@H](C(=O)N[C@@H](CC(N)=O)C(=O)N[C@@H](CO)C(=O)N[C@@H](CC(C)C)C(=O)N[C@@H](Cc1ccccc1)C(=O)NCC(=O)N[C@@H](CCCN=C(N)N)C(=O)O)[C@@H](C)CC` [FIFPKKNIINSLFGR], for which the minimal inhibitory concentration (MIC) in assay [8] is 8.92 µM (≈ 16 µg/mL); in [1] it was 8.92 µM (≈ 16 µg/mL); in assay [3] it was above 70.2 µM; in assay [9], 8.92 µM (≈ 16 µg/mL).
For `CC[C@H](C)[C@H](NC(=O)[C@H](CC(=O)O)NC(=O)[C@H](Cc1c[nH]c2ccccc12)NC(=O)[C@H](CO)NC(=O)[C@H](CCCN=C(N)N)NC(=O)[C@@H](N)CCCCN)C(=O)N[C@H](C(=O)N[C@@H](CCCCN)C(=O)N[C@@H](CCCCN)C(=O)N[C@@H](Cc1ccc(O)cc1)C(=O)N[C@H](C(=O)NCC(=O)N[C@H](C(=O)N[C@H](C(=O)N[C@H](C(=O)NCC(=O)N[C@H](C(=O)N[C@H](C(=O)N[C@@H](Cc1cnc[nH]1)C(=O)O)[C@@H](C)CC)[C@@H](C)O)C(C)C)C(C)C)C(C)C)C(C)C)C(C)C` [KRSWDIVKKYVGVVVGTIH], the MIC in assay [10] is at least 58.6 µM.
For the compound `CC[C@H](C)[C@H](NC(=O)CNC(=O)[C@H](CC(=O)O)NC(=O)[C@H](CC(C)C)NC(=O)[C@H](CC(C)C)NC(=O)CN)C(=O)N[C@@H](CC(C)C)C(=O)N[C@@H](CC(N)=O)C(=O)N[C@@H](C)C(=O)N[C@@H](CC(N)=O)C(=O)N[C@@H](Cc1ccccc1)C(=O)N[C@@H](CC(N)=O)C(=O)N[C@@H](C)C(=O)N[C@@H](C)C(=O)N[C@@H](CCCCN)C(=O)N[C@@H](CO)C(=O)N[C@@H](C)C(=O)NCC(=O)N[C@H](C(=O)N[C@@H](CO)C(=O)N[C@H](C(=O)N[C@@H](CC(C)C)C(=O)N[C@@H](CC(N)=O)C(=O)N[C@@H](C)C(=O)N[C@@H](CC(C)C)C(=O)N[C@@H](CO)C(=O)N[C@H]1CSSC[C@@H](C(=O)O)NC(=O)[C@H]([C@@H](C)O)NC(=O)[C@H](CCCCN)NC(=O)[C@H](CO)NC(=O)[C@H](CC(C)C)NC(=O)[C@H](CCCCN)NC1=O)C(C)C)[C@@H](C)O` [GLLDGILNANFNAAKSAGTSVLNALSCKLSKTC], the MIC in assay [8], in assay [1], in assay [3] and in [9] was 9.28 µM (≈ 30.6 µg/mL) throughout.
